The source of these data is patent US20070004715A1, “Novel spiro-quinuclidinyl derivatives for the treatment of central nervous system disorders” (priority 2005, published 2007).

One assay has as its target T1, fluo-Aβ1-40 (Homo sapiens, UniProt P05067).
T1 construct: added 100 nM of fluo-Aβ1-40 in 100 μl
Put plainly: Aβ Aggregation Assay (Synthaloid plates, fluo-Aβ1-40). Conditions: 10 μM test compound, 100 nM fluo-Aβ1-40, 2.5 hr at room temperature; higher % = greater effectiveness at preventing aggregation. It counts as biochemical. As to the method: Aβs are known to form aggregates leading to the formation of amyloid plaques that are characteristic of Alzheimer's disease.
This aggregation assay was validated using both ^125I-Aβ1-40 and fluo-Aβ1-40 in a buffer containing 50 mM HEPES, pH 7.4, 0.1% BSA, 10% FCS and protease inhibitors.
To each well of a 96-well Synthaloid plate was added 100 nM of fluo-Aβ1-40 in 100 μl. To each well was then added 10 μM of test compound. The plate was then allowed to incubate for 2.5 hr at room temperature. At the end of the incubation, unbound protein in the wells was removed by three washes using the buffer as described above. The amount of bound protein (which represents the amount of Aβ aggregation) was measured either by fluorescence measurements.
Higher fluorescence values relative to vehicle wells were interpreted as an indication of greater Aβ aggregation. […] Higher % values in the data in Table 4 below, below indicates greater effectiveness at preventing aggregation.
(§1) Both the Aβ aggregation assay as described in Example 55, particularly as run using the ^125I-Aβ1-40, and the % inhibition of AcH release assay as described in Example 56, were highly variable on a run-to-run basis. However, the relative activities of the tested compounds were reproducible.

For assay [1], the system named is Synaptosomes from guinea pig hippocampus. Put plainly: % Inhibition of AcH Release Assay (K+-evoked 3H-acetylcholine release). It is filed as cell-based. Conditions: synaptosomes pre-treated with 10 μM test compound prior to 65 mM K+ stimulation. As to the method: Synaptosomes from guinea pig hippocampus were incubated with 0.1 μM ^3H-choline and then subjected to repeated washes with buffer to remove unincorporated ^3H-choline. The synaptosomes were then treated with 65 mM K^+ for 30 seconds to elicit 3H-acetylcholine release.
To determine if a test compound will inhibit acetylcholine release, the synaptosomes were pre-treated with 10 μM of the test compound prior to the K+ stimulation. The decrease or increase in acetylcholine release was then measured by superfusion.
as §1

Assay [2] deals with T2, M1 muscarinic receptor (M1 human CHO receptor membranes) (Homo sapiens, UniProt P11229).
T2 construct: purchased Amersham 6110503; host or cells: CHO cell membranes
T2 sequence (P11229 1-460): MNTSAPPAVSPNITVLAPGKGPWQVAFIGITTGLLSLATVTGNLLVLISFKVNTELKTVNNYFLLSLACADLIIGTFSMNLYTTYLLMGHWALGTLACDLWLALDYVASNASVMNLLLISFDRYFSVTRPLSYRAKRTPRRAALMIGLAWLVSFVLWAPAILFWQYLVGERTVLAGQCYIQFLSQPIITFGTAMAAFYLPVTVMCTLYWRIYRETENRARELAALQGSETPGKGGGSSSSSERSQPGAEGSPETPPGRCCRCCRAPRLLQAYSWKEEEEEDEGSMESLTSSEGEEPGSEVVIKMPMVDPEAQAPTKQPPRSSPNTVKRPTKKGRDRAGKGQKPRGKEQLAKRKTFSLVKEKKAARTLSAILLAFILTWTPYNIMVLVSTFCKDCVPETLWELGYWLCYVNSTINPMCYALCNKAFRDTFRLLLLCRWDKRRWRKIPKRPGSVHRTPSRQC
Put plainly: M1 Muscarinic Receptor % Inhibition Assay (SPA, tritiated scopolamine). It is filed as binding.

The test system of assay [3] is Synaptosomes from guinea pig hippocampus. To be noted: peptide at 100 μM; 'known to' inhibit release; cited from earlier work.

Where a name gives a salt, the structure may show the parent alone. Read-outs that look alike come from different tables or passages of the source.

T1 sequence (P05067 672-711): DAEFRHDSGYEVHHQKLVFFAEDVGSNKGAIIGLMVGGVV

Turning to `COc1ccc(N2C(=N)CC3(CN4CCC3CC4)OC2=O)cc1` (stereo not drawn) [Compound 100, 3′-(4-methoxyphenyl)-quinuclidine-3-spiro-4′-iminooxan-2-ones trifluoroacetate salt], the “Aβ aggregation inhibition (%)” value on fluo-Aβ1-40 was found to be 48%. For the same compound, the “Inhibition of acetylcholine release” value in assay [1] is 34%.

As for `Cc1ccc(N2C(=N)CC3(CN4CCC3CC4)OC2=O)cc1` (stereo not drawn) [Compound 101, 3′-(4-methylphenyl)-quinuclidine-3-spiro-4′-iminooxan-2-ones trifluoroacetate salt], the “Aβ aggregation inhibition (%)” value on fluo-Aβ1-40 turned out to be 27%. Moreover, the “Inhibition of acetylcholine release” value in assay [1] stood at 24%.

In the case of `N=C1CC2(CN3CCC2CC3)OC(=O)N1c1ccc(Cl)c(Cl)c1` (stereo not drawn) [Compound 104, 3′-(3,4-dichlorophenyl)-quinuclidine-3-spiro-4′-iminooxan-2-ones trifluoroacetate salt], the “Aβ aggregation inhibition (%)” value on fluo-Aβ1-40 was 0%. Besides, the “Inhibition of acetylcholine release” value in assay [1] is given as 43%.

For the compound `Cc1cc(C)cc(N2C(=N)CC3(CN4CCC3CC4)OC2=O)c1` (stereo not drawn) [Compound 106, 3′-(3,5-dimethylphenyl)-quinuclidine-3-spiro-4′-iminooxan-2-ones trifluoroacetate salt], the “Aβ aggregation inhibition (%)” value at fluo-Aβ1-40 was 80%. For the same compound, the “Inhibition of acetylcholine release” value in assay [1] is listed as 18%.

For `N=C1CC2(CN3CCC2CC3)OC(=O)N1c1cc(Cl)cc(Cl)c1` (stereo not drawn) [Compound 107, 3′-(3,5-dichlorophenyl)-quinuclidine-3-spiro-4′-iminooxan-2-ones trifluoroacetate salt], the “Aβ aggregation inhibition (%)” value on fluo-Aβ1-40 amounted to 30%. Further, in assay [1], the “Inhibition of acetylcholine release” value is given as 54%.

Turning to `N=C1CC2(CN3CCC2CC3)OC(=O)N1c1cccc(Cl)c1` (stereo not drawn) [Compound 108, 3′-(3-chlorophenyl)-quinuclidine-3-spiro-4′-iminooxan-2-ones trifluoroacetate salt], the “Aβ aggregation inhibition (%)” value on fluo-Aβ1-40 is listed as 70%. For the same compound, the “Inhibition of acetylcholine release” value in assay [1] is reported as 63%.

`Cc1ccc(N2C(=N)CC3(CN4CCC3CC4)OC2=O)cc1Cl` (stereo not drawn) [Compound 109, 3′-(3-chloro-4-methylphenyl)-quinuclidine-3-spiro-4′-iminooxan-2-ones trifluoroacetate salt]: on fluo-Aβ1-40, the “Aβ aggregation inhibition (%)” value is recorded as 80%. Also, the “Inhibition of acetylcholine release” value in assay [1] came out at 33%. Besides, the “% Inhibition @1 μM” value in assay [2] (1 μM compound) is listed as 90%. Also, the “% Inhibition @10 μM” value in assay [2] (10 μM compound) came out at 98%.

Turning to “Aβ1-40: β-amyloid peptide 1-40, known to inhibit acetylcholine release from synaptosomes”, the “Inhibition of acetylcholine release” value in assay [3] is on record as 33%.

As to “Aβ1-42: β-amyloid1-42 peptide, forms oligomers, fibrils and amyloid plaques”, in assay [3], the “Inhibition of acetylcholine release” value is 33%.
